One assay deals with Procathepsin L (Homo sapiens, UniProt P07711). The assay can be described thus: CTSL1 protease inhibition – biochemical, QFRET, 1536-well, counter-screen for M1/M17 aminopeptidase inhibitor project, dose response (AID 2214).
For the next assay, the target named is T1, Aspartyl aminopeptidase (Plasmodium falciparum 3D7, UniProt Q8I2J3).
T1 sequence (Q8I2J3 whole entry): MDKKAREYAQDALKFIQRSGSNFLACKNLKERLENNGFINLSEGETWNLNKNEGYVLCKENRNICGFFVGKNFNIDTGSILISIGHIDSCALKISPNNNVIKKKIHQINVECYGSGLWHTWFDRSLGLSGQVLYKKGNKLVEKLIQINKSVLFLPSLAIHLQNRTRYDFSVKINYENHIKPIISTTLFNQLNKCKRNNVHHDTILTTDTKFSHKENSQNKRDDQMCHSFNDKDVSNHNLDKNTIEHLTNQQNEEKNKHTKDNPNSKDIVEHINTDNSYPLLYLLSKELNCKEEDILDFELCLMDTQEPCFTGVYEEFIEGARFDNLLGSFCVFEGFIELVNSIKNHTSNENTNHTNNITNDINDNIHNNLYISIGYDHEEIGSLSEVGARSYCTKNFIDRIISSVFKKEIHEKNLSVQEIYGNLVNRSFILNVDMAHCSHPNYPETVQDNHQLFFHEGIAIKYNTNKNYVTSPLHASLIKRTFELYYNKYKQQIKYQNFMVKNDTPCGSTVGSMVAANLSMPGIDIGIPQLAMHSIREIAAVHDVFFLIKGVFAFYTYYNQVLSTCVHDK
The assay can be described thus: Counterscreen for inhibitors of M1 and M17 aminopeptidases: QFRET-based biochemical high throughput dose response assay for inhibitors of the Plasmodium falciparum M18 Aspartyl Aminopeptidase (PFM18AAP). [Related PubChem assays: 1619 (Screening assay (M17LAP inhibitors).), 1445 (Screening assay (M1AAP inhibitors).)]. (In general: The purpose of a counterscreen is to sort out artefacts and off-target activity.)

A further assay has as its target T2, Leucine aminopeptidase (Plasmodium falciparum 3D7, UniProt Q8IL11).
T2 sequence (Q8IL11 whole entry): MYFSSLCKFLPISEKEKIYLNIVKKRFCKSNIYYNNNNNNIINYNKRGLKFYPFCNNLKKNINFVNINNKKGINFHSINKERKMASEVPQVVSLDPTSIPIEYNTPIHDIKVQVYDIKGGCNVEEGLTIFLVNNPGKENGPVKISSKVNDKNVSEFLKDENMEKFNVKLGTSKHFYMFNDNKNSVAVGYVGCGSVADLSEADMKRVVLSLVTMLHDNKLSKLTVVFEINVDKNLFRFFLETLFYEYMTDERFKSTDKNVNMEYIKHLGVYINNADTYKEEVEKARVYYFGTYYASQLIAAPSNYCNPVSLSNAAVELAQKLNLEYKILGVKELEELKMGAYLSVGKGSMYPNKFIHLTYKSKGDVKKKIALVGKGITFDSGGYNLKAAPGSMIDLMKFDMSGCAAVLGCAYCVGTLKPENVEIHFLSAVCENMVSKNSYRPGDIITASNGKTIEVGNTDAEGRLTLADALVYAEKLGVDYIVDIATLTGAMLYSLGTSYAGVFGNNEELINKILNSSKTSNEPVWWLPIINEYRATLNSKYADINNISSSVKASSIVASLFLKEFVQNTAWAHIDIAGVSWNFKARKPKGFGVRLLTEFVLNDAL
The assay can be described thus: P. falciparum M17LAP inhibitors, primary screen, biochemical, fluorogenic H-Leu-NHMec substrate, 1536-well (AID 1619). The class given is functional.

The nature of assay [1]: intracellular Trypanosoma cruzi inhibitors in host cells – cell-based, plate reader, cherry-pick samples, set 3, dose response (AID 651818).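 Further: compounds incubated with infected cells for about four days.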 The class given is functional.
Assay [2] deals with T3, Short transient receptor potential channel 4 (Mus musculus, UniProt Q9QUQ5).
T3 sequence (Q9QUQ5 whole entry): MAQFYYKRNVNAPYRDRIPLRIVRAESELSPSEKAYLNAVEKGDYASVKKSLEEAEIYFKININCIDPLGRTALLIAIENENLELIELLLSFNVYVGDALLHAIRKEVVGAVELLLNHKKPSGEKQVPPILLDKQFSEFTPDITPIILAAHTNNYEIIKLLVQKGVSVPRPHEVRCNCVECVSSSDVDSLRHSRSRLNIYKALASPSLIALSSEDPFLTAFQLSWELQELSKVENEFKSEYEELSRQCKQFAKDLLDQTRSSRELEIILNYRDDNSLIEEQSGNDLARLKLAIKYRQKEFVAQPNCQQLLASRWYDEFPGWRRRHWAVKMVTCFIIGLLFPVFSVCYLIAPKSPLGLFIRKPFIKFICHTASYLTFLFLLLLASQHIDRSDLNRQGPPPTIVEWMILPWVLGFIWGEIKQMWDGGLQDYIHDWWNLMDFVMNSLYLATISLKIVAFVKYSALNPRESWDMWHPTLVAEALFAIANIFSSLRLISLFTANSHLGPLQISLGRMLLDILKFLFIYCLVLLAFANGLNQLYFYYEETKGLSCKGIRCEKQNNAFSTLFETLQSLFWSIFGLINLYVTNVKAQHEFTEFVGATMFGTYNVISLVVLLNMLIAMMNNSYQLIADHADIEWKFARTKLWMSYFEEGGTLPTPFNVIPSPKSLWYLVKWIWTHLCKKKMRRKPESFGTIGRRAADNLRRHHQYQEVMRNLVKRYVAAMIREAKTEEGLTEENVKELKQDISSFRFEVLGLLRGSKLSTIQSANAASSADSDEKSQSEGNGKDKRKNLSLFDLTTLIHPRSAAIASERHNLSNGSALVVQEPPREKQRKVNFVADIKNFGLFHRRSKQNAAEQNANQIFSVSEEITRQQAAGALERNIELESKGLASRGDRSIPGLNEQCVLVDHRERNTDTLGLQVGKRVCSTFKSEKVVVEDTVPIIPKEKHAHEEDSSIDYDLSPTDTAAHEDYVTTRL
The assay can be described thus: block of DAMGO-driven TRPC4 calcium entry – cell-based, HEK293 TRPC4/mu-opioid, Fluo-4 calcium, dose response (AID 434942).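 Further: potency of inhibitors blocking the TRPC4 calcium response.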 Format: functional.

Another assay deals with Vero. The assay can be described thus: mammalian cell viability reduction – secondary assay, cytotoxicity control for West Nile virus antiviral project, dose response (AID 1650). The class given is functional. The conditions noted are these: Chlorocebus sabaeus.
The target of another assay is T4, X-box-binding protein 1 (Homo sapiens, UniProt P17861).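 Further: confirmatory dose-response counter-screen serving a CHOP assay.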
T4 sequence (P17861 whole entry): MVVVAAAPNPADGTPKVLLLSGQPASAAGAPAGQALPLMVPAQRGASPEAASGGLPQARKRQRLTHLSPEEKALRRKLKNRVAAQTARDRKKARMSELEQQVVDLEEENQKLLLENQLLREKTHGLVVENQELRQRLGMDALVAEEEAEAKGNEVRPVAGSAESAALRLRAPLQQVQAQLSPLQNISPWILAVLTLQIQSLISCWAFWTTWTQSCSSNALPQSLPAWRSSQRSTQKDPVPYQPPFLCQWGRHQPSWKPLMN
The class given is functional, Cricetulus griseus.

Another assay deals with T5, Aminopeptidase N (Plasmodium falciparum FcB1/Columbia, UniProt O96935).
T5 sequence (O96935 whole entry): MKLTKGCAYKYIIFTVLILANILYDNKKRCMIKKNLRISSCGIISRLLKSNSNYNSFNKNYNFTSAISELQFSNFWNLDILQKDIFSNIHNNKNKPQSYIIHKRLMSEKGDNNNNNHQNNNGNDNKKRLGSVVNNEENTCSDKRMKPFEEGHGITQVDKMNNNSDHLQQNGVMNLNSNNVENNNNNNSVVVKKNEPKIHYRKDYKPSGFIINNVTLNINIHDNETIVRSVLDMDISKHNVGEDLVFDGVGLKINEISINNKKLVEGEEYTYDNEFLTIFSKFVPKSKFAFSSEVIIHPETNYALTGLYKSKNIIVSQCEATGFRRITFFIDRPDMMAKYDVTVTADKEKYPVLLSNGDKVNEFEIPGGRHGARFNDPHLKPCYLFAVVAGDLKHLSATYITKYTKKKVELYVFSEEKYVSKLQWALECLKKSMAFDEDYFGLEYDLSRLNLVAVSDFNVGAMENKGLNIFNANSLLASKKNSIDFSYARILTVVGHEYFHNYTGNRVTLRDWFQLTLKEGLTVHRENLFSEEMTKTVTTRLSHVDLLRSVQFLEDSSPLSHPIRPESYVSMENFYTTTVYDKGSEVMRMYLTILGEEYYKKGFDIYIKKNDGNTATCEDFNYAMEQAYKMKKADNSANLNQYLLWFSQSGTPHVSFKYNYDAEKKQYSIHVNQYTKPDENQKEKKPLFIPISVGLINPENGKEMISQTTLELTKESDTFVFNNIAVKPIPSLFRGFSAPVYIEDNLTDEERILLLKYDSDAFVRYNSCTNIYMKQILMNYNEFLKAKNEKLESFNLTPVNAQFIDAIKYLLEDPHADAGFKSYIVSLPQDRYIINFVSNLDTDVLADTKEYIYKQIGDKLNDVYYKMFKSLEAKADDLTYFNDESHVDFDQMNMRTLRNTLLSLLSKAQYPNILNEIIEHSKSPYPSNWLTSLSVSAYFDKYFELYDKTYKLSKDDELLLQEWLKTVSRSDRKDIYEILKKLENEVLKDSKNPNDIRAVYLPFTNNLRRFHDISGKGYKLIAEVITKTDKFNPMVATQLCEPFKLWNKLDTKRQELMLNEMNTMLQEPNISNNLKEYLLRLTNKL
The assay can be described thus: malaria alanyl aminopeptidase activity blockers – biochemical, fluorogenic H-Leu-NHMec substrate, 1536-well (AID 1445). Further details: species or system Plasmodium falciparum 3D7, 3D7.

Assay [3] in a line: blockers of HIV-1 ZM109 envelope-driven cell-cell fusion – HeLa effector, CEM target cells, luciferase, cherry-pick, dose response (AID 652058).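 Further: luciferase signal from HIV-1 Env mediated cell-cell fusion of effector and target cells.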 The class given is functional, cell-based.
Assay [4] can be described thus: HIV-1 AD8 envelope cell-cell fusion blockers – cherry-pick, dose response (AID 652062).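 Further: luciferase signal from cell-cell fusion driven by HIV-1 clade B AD8 Env; potency is for inhibitors of fusion seen as a drop in luminescence.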 Format: functional, cell-based.
The nature of assay [5]: off-target signal loss in HeLa-CEM21 co-culture – HeLa F-luc CTL cells, cherry-picked, counter-screen for HIV-1 Env fusion inhibitor project, dose response (AID 652040).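 Further: potency for signal decrease marking cytotoxic or nonspecific inhibition.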 The class given is functional, cell-based.
A short description of assay [6]: blockers of HIV-1 envelope-mediated cell-cell fusion – cherry-pick, dose response (AID 652057). Format: functional, cell-based.

Results on eleven molecules are retold here after ChEMBL document CHEMBL1201862, “PubChem BioAssay data set” (2004).

Active and inactive are the calls of the source.

Sequence of Procathepsin L (P07711 whole entry): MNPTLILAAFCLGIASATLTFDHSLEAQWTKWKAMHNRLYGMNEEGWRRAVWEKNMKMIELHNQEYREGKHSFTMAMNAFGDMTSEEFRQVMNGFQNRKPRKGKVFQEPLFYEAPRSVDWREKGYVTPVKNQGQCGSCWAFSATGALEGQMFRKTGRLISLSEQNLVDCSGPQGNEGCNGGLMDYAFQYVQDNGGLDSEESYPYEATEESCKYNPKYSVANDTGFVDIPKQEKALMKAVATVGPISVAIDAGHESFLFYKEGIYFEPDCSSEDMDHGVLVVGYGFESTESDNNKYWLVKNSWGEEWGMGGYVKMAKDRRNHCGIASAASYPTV

The term IC50 denotes the concentration that gives 50% inhibition. `Cc1ccc(-n2c(C)cc(C(=O)COC(=O)c3ccc[nH]c3=O)c2C)cc1`: the IC50 is > 59.6 µM (not active) at Procathepsin L, > 73.5 µM (not active) against Aspartyl aminopeptidase and 1.22 µM (active) on Leucine aminopeptidase.

The term AC50 denotes the concentration at which the activity in the assay is half-maximal. `C[C@@H]1CN([C@H](C)CO)C(=O)c2cccc(NC(=O)C3CCCCC3)c2O[C@H]1CN(C)Cc1ccc(Cl)c(Cl)c1`: in assay [1], the AC50 is 3.93 µM (active).

For orientation: EC50 means the concentration that produces a half-maximal response. As for `CCC(C)NCCOCCOc1ccccc1-c1ccccc1` (configuration not stated), the EC50 in [2] is 1.19 µM (active).

On to `C[C@H]1CN([C@@H](C)CO)C(=O)c2cc(NS(=O)(=O)c3ccc(F)cc3)ccc2O[C@@H]1CN(C)Cc1ccc(Oc2ccccc2)cc1`, for which the AC50 in assay [1] was 3.72 µM (active).

What is called CC50 is the concentration at which the toxic effect on the cells reaches its halfway point. Take `CCC(=O)N1N=C(c2c(O)nc3ccc(Cl)cc3c2-c2ccccc2)CC1c1ccco1` (configuration not stated): the CC50 in the assay with Vero was 73.3 µM (active). Moreover, on X-box-binding protein 1, the “Absolute IC50 (XBP1)” value amounted to 10 µM.

As for `CCc1cc2ccccc2nc1SCC(=O)Nc1cc(OC)c(OC)cc1C(=O)O`, the IC50 is > 59.6 µM (not active) at Procathepsin L, > 73.5 µM (not active) against Aspartyl aminopeptidase and < 1 µM (active) at Leucine aminopeptidase.

`O=C(Nn1c(Cc2cccs2)nc2ccccc2c1=O)c1cccs1`: the IC50 is > 59.6 µM (not active) at Procathepsin L, > 73.5 µM (not active) at Aspartyl aminopeptidase and 11.9 µM (active) at Aminopeptidase N.

With `Clc1ccc(COc2ccccc2CNCc2cccnc2)cc1`, the EC50 in assay [2] is 2.99 µM (active).

`CCCNCc1cc(Br)ccc1OCC(=O)NCCc1ccccc1`: the EC50 in assay [2] is 0.841 µM (active).

In the case of `Oc1ccc(Br)cc1-c1nc2cnccn2c1NC1CCCCC1`, the “Absolute IC50 (XBP1)” value at X-box-binding protein 1 was 10 µM.

On to `O=C(Nc1ccccc1N1CCN(C(=O)c2ccccc2)CC1)c1ccc(Br)o1`, for which the AC50 was 12.1 µM (active) in assay [3], 11 µM (active) in assay [4], 15.2 µM (active) in assay [5] and 10.2 µM (active) in [6]. Further, in assay [2], the EC50 was 0.596 µM (active).
